Data on 16 molecules can be found in patent US20240294588A1, “C2 Domain Therapeutics and Uses Thereof” (University of Maryland, Baltimore, priority 2021, published 2024).

Entries after “also recorded” stand apart in the source; their conditions may differ. Read-outs that look alike come from different tables or passages of the source.

The test system of series [1] is dysferlin-null A/J myofibers. Kind of series: Distribution of Venus-tagged constructs (triad junctions vs Z-disks) in transfected myofibers. Format: cell-based, mouse. The following applies: FIG. 6. The source says:
(§1) FIGS. 2A-2E show the DYSF-C2A distribution and partial protection against loss of Ca^2+ transient and development of Ca^2+ waves after OSI. The construct in FIG. 2A was electroporated into Flexor digitorum brevis (FDB) muscles of dysferlin-null A/J mice and imaged 10 d later. […] Distribution of the Venus construct is indicated to the right. Recovery is partial (in the upper region of fiber). FIG. 2D quantitates results from several dozen fibers of each type. […] Higher levels of expression show more consistent recoveries and suppression of waves than lower levels.
The constructs in FIG. 4A were electroporated and visualized as in FIG. 2. […] Recovery is complete. FIG. 4D quantitates results from several dozen fibers transfected with each construct. […] Note the high level of Ca release and low frequency of waves indicated by the y-intercepts at low transfection levels.
A Venus-tagged version of the C2 domain of PKCα was expressed in both control (C57Bl/6) (FIG. 12A) and dysferlin-null (A/J) myofibers (FIG. 12B) and the transfected fibers were imaged. […] They help to explain the ability of the chimeric constructs containing Ven-C2-PKCα to potentiate the beneficial effects of the DYSF-C2A domain.

In series [2] the test system is dysferlin-null A/J myofibers. Description: Ca2+ signaling: voltage-induced Ca2+ transients (Rhod-2) and Ca2+ waves before and after osmotic shock injury (OSI) in electroporated FDB myofibers. The format is cell-based, mouse. The following applies: for Effect on amplitude of Ca2+ transients: A/J fibers, FIG. 8; for Ca2+ signaling activity (restoring/protecting amplitude of the Ca2+ transient after OSI): construct electroporated into dysferlin-null A/J FDB fibers, Rhod-2, before and 5 min after OSI; for Ca2+ wave frequency / suppression of Ca2+ waves after OSI: construct expressed in A/J fibers; for y-intercept for Ca transient (normalized Ca release vs amount of Venus construct in each fiber) / y-intercept for wave frequency (Ca wave frequency vs amount of Venus construct in each fiber): intercept at low expression level, FIG. 2E / FIG. 4E.
Description: as §1
To assay Ca^2+ transients, Rhod-2 was added to myofibers as the Rhod2-AM derivative at a concentration of 4.4 μM, or almost 500× higher than the concentration of BAPTA-AM that effectively restores the WT phenotype. Rhod-2 is essentially rhodamine on a BAPTA backbone, so its mode of binding Ca^2+ is identical to that of BAPTA. Rhod-2 has a (calculated) Stokes' radius ˜20% larger than BAPTA; it has a lower affinity for Ca^2+ and its solubility in DMSO is ˜20× lower than BAPTA's. Rhod-2 appears to distribute uniformly in the myoplasm under these conditions of loading.

The next series concerns cultured myofibers. Kind of series: Accumulation of chelator in treated myofibers, estimated with fluorescent variant Fluo4-AM. The format is cell-based. The following applies: 10 nM extracellular concentration. Here is the method: This concentration of BAPTA in myofibers is sufficient to restore elevated myoplasmic [Ca^2+ ] of 150-200 nM to levels close to WT levels of ˜100 nM. This can explain why as little as 10 nM BAPTA-AM can restore the WT phenotype.

A further series relates to dysferlin and PKCα. Kind of series: Colocalization and co-immunoprecipitation of dysferlin and PKCα. The format is cell-based.
In series [3] the test system is dysferlin-null A/J myofibers. The following applies: dysferlin-null fibers, background / known results, cited from earlier work.
Series [4] concerns FDB muscles of A/J mice. Description: Membrane repair after infrared laser injury in the presence of FM4-64 dye. Format: cell-based, mouse. The conditions noted are these: A/J FDB muscle, FM4-64 fluorescence, area under curve. The source says: FIGS. 3A-3B show the membrane repair by the DYSF-C2A domain. FDB muscles of A/J mice were electroporated with expression plasmids for WT DYSF or DYSF-C2A. 7d later muscles were removed and injured by infrared laser illumination in the presence of FM4-64 lipophilic dye. […] Means±SEM, n=7, *p<0.01 by ANOVA followed with Tukey's post-hoc test.

A short description of the next series: Solubility in DMSO. Format: physicochemical.
The test system of series [5] is FDB muscles of A/J mice. The following applies: dysferlin-null fibers, background / known results; cited from earlier work.

In the case of “2 C2-PKCα domains with a single DYSF-C2A domain: construct that contains 2 C2-PKCα domains with a single DYSF-C2A domain; SEQ ID NO: 13”, the “Transfected fibers with construct targeted to / concentrated at TJs” value in series [1] was found to be 75%.

For `CC(=O)OCOC(=O)CN(CC(=O)OCOC(C)=O)c1ccccc1OCCOc1ccccc1N(CC(=O)OCOC(C)=O)CC(=O)OCOC(C)=O` [BAPTA-AM, reference compound], the “Restoration of WT phenotype (Ca2+ transient before and after OSI, Ca2+ waves)” value in series [2] (10 nM added to cultured A/J myofibers) is listed as “effectively restores A/J myofibers to the WT phenotype”. As to `CC(=O)OCOC(=O)CN(CC(=O)OCOC(C)=O)c1ccc(C)cc1OCCOc1cc(-c2c3cc(F)c(=O)cc-3oc3cc(OCOC(C)=O)c(F)cc23)ccc1N(CC(=O)OCOC(C)=O)CC(=O)OCOC(C)=O` [Fluo4-AM], the “Intracellular vs extracellular concentration” value with cultured myofibers was 7-10 fold. As for `CCCCCCCCCCCCCC(=O)O[C@@H]1[C@@H](C)[C@@]2(O)[C@@H](C=C(CO)C[C@]3(O)C(=O)C(C)=C[C@@H]23)[C@@H]2C(C)(C)[C@]12OC(C)=O` [PMA, phorbol 12-myristate 13-acetate, reference compound], in the series on dysferlin and PKCα, the “Effect on colocalization of dysferlin and PKCα in myofibers and on co-IP from HEK cells” value is “neither phorbol 12-myristate 13-acetate (PMA) nor staurosporine, drugs that activate and inhibit PKCα, respectively, have any effect”. Besides, the “Effect on amplitude of Ca2+ transients” value in series [2] is given as “significantly alter the amplitude of the Ca^2+ transients”. Consider `O=C1CN(/N=C/c2ccc(-c3ccc([N+](=O)[O-])cc3)o2)C(O)=N1` [dantrolene], for which the “Ca2+ signaling (Ca2+ transient amplitude, loss after OSI, waves), earlier studies” value in series [3] is reported as “prevented these changes”. Take `COc1ccc([C@@H]2Sc3ccccc3N(CCN(C)C)C(=O)[C@@H]2OC(C)=O)cc1` [diltiazem]: the “Ca2+ signaling (Ca2+ transient amplitude, loss after OSI, waves), earlier studies” value in series [3] is on record as “prevented these changes”. Consider `CN[C@@H]1C[C@H]2O[C@@](C)([C@@H]1OC)n1c3ccccc3c3c4c(c5c6ccccc6n2c5c31)C(=O)NC4` [staurosporine, reference compound], for which the “Effect on amplitude of Ca2+ transients” value in series [2] is recorded as “significantly alter the amplitude of the Ca^2+ transients”. With “A84V: full length dysferlin with polymorphism A84V in C2A [reference compound]”, the “Ca2+ signaling activity (restoring/protecting amplitude of the Ca2+ transient after OSI)” value in series [2] was “left dysferlin's Ca^2+ signaling activity intact”.

Take “C2 domain of PKCα: isolated C2 domain of PKCα (XP_024306597.1, residues 71-229), tagged with a Venus moiety”: in the series on FDB muscles of A/J mice [4], the Membrane repair activity result is “inactive”. Moreover, the entries for the “Ca2+ signaling activity (restoring/protecting amplitude of the Ca2+ transient after OSI)” value in series [2], in series [2] (listed as PKCα-C2) and in series [2] (listed as PKCα-C2 domain) were “completely without activity”, “failed to replicate the effects of DYSF-C2A” and “inactive”, respectively. In the case of “C2-PKCα-DYSF-C2A: chimeric construct with C2-PKCα just N-terminal to DYSF-C2A, tagged with Venus; SEQ ID NO: 11”, the “Transfected fibers with construct targeted to / concentrated at TJs” value in series [1] is ~25%. Besides, in the series on FDB muscles of A/J mice [4], the Membrane repair activity entry is listed as “improved repair as well as WT DYSF; also recorded: just as effective as WT DYSF in supporting membrane repair”. In addition, in series [2], the “Ca2+ signaling activity (restoring/protecting amplitude of the Ca2+ transient after OSI)” value is given as “results identical to WT DYSF; also recorded: indistinguishable from WT DYSF in restoring the amplitude of the Ca^2+ transient”, the “Ca2+ wave frequency / suppression of Ca2+ waves after OSI” value was “almost as effective in suppressing Ca^2+ waves”, the “y-intercept for Ca transient (normalized Ca release vs amount of Venus construct in each fiber)” value is 3.7 and the “y-intercept for wave frequency (Ca wave frequency vs amount of Venus construct in each fiber)” value is 0.11.

In the case of “DYSF-C2A: C2A domain of dysferlin (AF075575.1, amino acids 1-100) expressed on its own as a Venus fusion protein; SEQ ID NO: 4”, the Membrane repair activity entry in the series on FDB muscles of A/J mice [4] is “improved repair as well as WT DYSF; also recorded: fully stabilized membrane repair activity”. In series [2], the “Ca2+ signaling activity (restoring/protecting amplitude of the Ca2+ transient after OSI)” value was “intermediate between Venus (negative control) and WT DYSF (positive control) controls; also recorded: partially restored some Ca^2+ signaling activity”; the “Ca2+ wave frequency / suppression of Ca2+ waves after OSI” value is “low frequency of Ca^2+ waves, only slightly more than with WT DYSF”; the “y-intercept for Ca transient (normalized Ca release vs amount of Venus construct in each fiber)” value stood at 0.47; the “y-intercept for wave frequency (Ca wave frequency vs amount of Venus construct in each fiber)” value came out at 0.37.

For Rhod-2, in “Solubility in DMSO”, the “Solubility in DMSO relative to BAPTA” value is reported as ~20 × lower. Take “V67D: full length dysferlin with pathogenic mutation V67D in C2A [reference compound]”: in series [2], the “Ca2+ signaling activity (restoring/protecting amplitude of the Ca2+ transient after OSI)” value is listed as “inactivated full length dysferlin”.

As to “V68L: full length dysferlin with polymorphism V68L in C2A [reference compound]”, the “Ca2+ signaling activity (restoring/protecting amplitude of the Ca2+ transient after OSI)” value in series [2] was “left dysferlin's Ca^2+ signaling activity intact”. With “W52R: full length dysferlin with pathogenic mutation W52R in C2A [reference compound]”, the “Ca2+ signaling activity (restoring/protecting amplitude of the Ca2+ transient after OSI)” value in series [2] is on record as “inactivated full length dysferlin”. With “WT dysferlin: wild type full length dysferlin introduced by electroporation, positive control”, the “Ca2+ signaling (Ca2+ transient amplitude, loss after OSI, waves), earlier studies” value in series [3] is listed as “restores full activity”; in series [3] (listed as wild type dysferlin), “restores the amplitude of Ca^2+ transients to WT levels”. In addition, the “Membrane repair, earlier studies” value in the series with FDB muscles of A/J mice [5] is “restores full activity”.
